These results are taken from patent US20070249519A1, “METHODS FOR THE UPREGULATION OF GLUT4 VIA MODULATION OF PPAR DELTA IN ADIPOSE TISSUE AND FOR THE TREATMENT OF DISEASE” (KALYPSYS, INC., priority 2006, published 2007).

The target in one series is T1, PPAR alpha (Homo sapiens, UniProt Q07869).
T1 construct: expressed in transfected cells; host or cells: CV-1 cells
T1 sequence (Q07869 239-466 limits assumed): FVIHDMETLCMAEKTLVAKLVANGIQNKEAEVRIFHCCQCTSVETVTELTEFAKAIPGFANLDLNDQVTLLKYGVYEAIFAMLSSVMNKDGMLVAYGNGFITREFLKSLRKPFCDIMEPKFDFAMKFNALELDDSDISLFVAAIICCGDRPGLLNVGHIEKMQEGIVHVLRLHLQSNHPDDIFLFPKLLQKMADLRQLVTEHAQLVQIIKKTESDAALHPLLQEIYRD
Conditions: GAL4 chimera, CV-1 cells, luciferase; cited from earlier work.

For the next series, the target named is T2, PPAR gamma (Homo sapiens, UniProt P37231).
T2 construct: expressed in transfected cells; host or cells: CV-1 cells
T2 sequence (P37231 238-503 limits assumed): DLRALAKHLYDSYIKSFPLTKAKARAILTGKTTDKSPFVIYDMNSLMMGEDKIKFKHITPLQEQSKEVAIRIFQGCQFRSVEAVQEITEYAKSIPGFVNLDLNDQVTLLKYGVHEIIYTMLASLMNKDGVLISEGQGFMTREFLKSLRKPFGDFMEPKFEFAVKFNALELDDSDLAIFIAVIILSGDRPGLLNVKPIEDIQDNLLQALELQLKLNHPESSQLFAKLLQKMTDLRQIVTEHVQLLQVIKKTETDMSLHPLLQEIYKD
Conditions: GAL4 chimera, CV-1 cells, luciferase; cited from earlier work.

The nature of series [1]: Insulin tolerance testing (ITT), DIO model in mice. In kind it is in vivo, C57B1/6j mice. Conditions: NC and HFD cohorts, 3 and 9 mg/kg. An excerpt: (§1) Metabolic syndrome in humans is characterized by abdominal obesity, high triglycerides, impaired fasting glucose and hyperinsulinemia. In the DIO model, mice are fed high fat diet (HFD, Research diet D12492, Research Diet, N.J.) diet (58% lard) for the entire period of the study. Compared to normal chow (NC, Harlan-Tekland #8604, WI) fed animals the HF fed mice develop several features of metabolic syndrome such as hypertriglyceridemia, hyperinsulinemia and mild hyperglycemia, as early as two weeks, on this diet. […] Additionally, GLUT4 expression is down regulated in HF-fed C57B1/6j mice after 4 weeks. […]
(§2) C57B1/6j mice (n=5-6 for each group) were fed ad libitum with either the HFD (58% fat) or NC (5%) diet for 4 weeks prior to start of experiments, and throughout the course of each experiment (Days −27 to Day 60). […] Plasma Insulin, and glucose levels under fasting and postprandial (PP) conditions were measured using the Ultrasensitive Mouse Insulin ELISA kit (Mercodia) and glucometer (Accu-Check Compact, Roche) respectively. […] Tissues were collected at sacrifice at 3-4 hours post dosing with compound 1 or compound 2 in a fed state and GLUT4 mRNA expression was assessed using GLUT4 specific probes and branched DNA (bDNA) analyses (Epicenter Biotechnologies).

Series [2] is described as follows: Glucose tolerance testing (GTT), DIO model in mice. In kind it is in vivo, C57B1/6j mice. An excerpt: Metabolic syndrome in humans is characterized by abdominal obesity, high triglycerides, impaired fasting glucose and hyperinsulinemia. In the DIO model, mice are fed high fat diet (HFD, Research diet D12492, Research Diet, N.J.) diet (58% lard) for the entire period of the study. Compared to normal chow (NC, Harlan-Tekland #8604, WI) fed animals the HF fed mice develop several features of metabolic syndrome such as hypertriglyceridemia, hyperinsulinemia and mild hyperglycemia, as early as two weeks, on this diet. […] Additionally, GLUT4 expression is down regulated in HF-fed C57B1/6j mice after 4 weeks. This model was used to evaluate the pharmacological effects of a Compound 1 and Compound 2 in mitigating several features of HFD induced metabolic syndrome in rodents.
(§3) C57B1/6j mice (n=5-6 for each group) were fed ad libitum with either the HFD (58% fat) or NC (5%) diet for 4 weeks prior to start of experiments, and throughout the course of each experiment (Days −27 to Day 60). Starting on Day 1, mice were dosed BID with either 3 mg/kg Compound 1+vehicle, 9 mg/kg Compound 1+vehicle, 3 mg/kg Compound 2+vehicle, or vehicle alone, for the entire period of the study (day 0-60). Plasma Insulin, and glucose levels under fasting and postprandial (PP) conditions were measured using the Ultrasensitive Mouse Insulin ELISA kit (Mercodia) and glucometer (Accu-Check Compact, Roche) respectively. Appropriate dilutions were made in each case to ensure that the samples remained in the linear range of the standard curve. Animals were sacrificed and levels of Compound 1 and Compound 2 in adipose and muscle tissue were assayed using LC/Mass Spec. Tissues were collected at sacrifice at 3-4 hours post dosing with compound 1 or compound 2 in a fed state and GLUT4 mRNA expression was assessed using GLUT4 specific probes and branched DNA (bDNA) analyses (Epicenter Biotechnologies).

For series [3], the system named is GLUT4 mRNA expression. Nature of the series: GLUT4 mRNA expression in muscle tissue, DIO model in mice. In kind it is in vivo, C57B1/6j mice. Conditions: 14 weeks of treatment, 3 or 9 mg/kg, NC or HFD, vs vehicle.
Source text: as §1, §2

The target in a further series is T3, PPAR delta (Homo sapiens, UniProt Q03181).
T3 construct: expressed in transfected cells; host or cells: CV-1 cells
T3 sequence (Q03181 211-439 limits assumed): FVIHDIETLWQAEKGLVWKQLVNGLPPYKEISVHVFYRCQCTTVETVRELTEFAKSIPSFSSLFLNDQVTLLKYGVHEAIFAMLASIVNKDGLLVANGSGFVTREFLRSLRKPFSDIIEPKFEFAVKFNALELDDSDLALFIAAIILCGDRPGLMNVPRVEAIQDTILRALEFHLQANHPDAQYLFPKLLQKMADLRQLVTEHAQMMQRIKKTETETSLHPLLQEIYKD
Conditions: GAL4 chimera, CV-1 cells, luciferase; cited from earlier work.

Series [4] is described as follows: Compound level in adipose tissue by LC/Mass Spec, DIO model in mice. Type of series: in vivo, C57B1/6j mice. Conditions: 8 weeks of treatment, 3 or 9 mg/kg/d Compound 1 vs 3 mg/kg/day Compound 2. As for the experimental part:
as §3

Series [5] relates to GLUT4 mRNA expression. The series is described as follows: GLUT4 mRNA expression in adipose tissue, DIO model in mice. In kind it is in vivo, C57B1/6j mice. Conditions: 3 or 9 mg/kg.
Source text: as §1, §2

For series [6] the following is noted: in vivo; cited from earlier work.
The next series deals with GLUT4. Conditions: in vivo; cited from earlier work.
The subject of another series is GLUT4 translocation. Conditions: ZDF ob/ob and DIO C57BL/6 mice; cited from earlier work.

Molecules are shown by their SMILES.

On to `C[C@@H]1CN(c2ccc(OC(F)(F)F)cc2)C[C@H](C)N1S(=O)(=O)c1cccc2c1CC(C(=O)O)C2` (mixture of isomers) [Compound 1, 4-[cis-2,6-Dimethyl-4-(4-trifluoromethoxy-phenyl)-piperazine-1-sulfonyl]-indan-2-carboxylic acid], for which the EC50 is above 100 µM on PPAR alpha, above 100 µM at PPAR gamma and below 5 µM on PPAR delta. For the same compound, the “plasma glucose during ITT (FIGS. 9 and 10)” value in series [1] is given as “attenuated plasma glucose output”. Moreover, in series [2] (HFD cohort, 3 and 9 mg/kg), the “plasma glucose during GTT, effect by dose (FIG. 6)” value was “an effect was seen at both doses”. Moreover, the “plasma glucose during GTT (FIGS. 5 and 6)” value in series [2] (NC and HFD cohorts) is “increased glucose disposal”. Further, the “plasma insulin during GTT (FIGS. 7 and 8)” value in series [2] (NC and HFD cohorts) was “decreased insulin levels”. The “GLUT4 mRNA expression in murine muscle tissue (FIG. 1)” value in the series on GLUT4 mRNA expression [3] is listed as “no significant increase”. Further, in [4], the “uptake (concentration) in murine adipose tissue (FIG. 4)” value is listed as “preferentially uptaken over Compound 2”. For the same compound, in the series on GLUT4 mRNA expression [5] (8 weeks of treatment, HFD cohort), the “GLUT4 mRNA expression in murine adipose tissue (FIG. 3)” value was “upregulated”. In addition, the “GLUT4 mRNA expression in murine adipose tissue (FIG. 2)” value in the series on GLUT4 mRNA expression [5] (14 days of treatment, HFD fed mice) is recorded as “normalized expression of GLUT-4”.

As to `C[C@@H]1CN(Cc2ccc(OC(F)(F)F)cc2)C[C@H](C)N1S(=O)(=O)c1cccc2c1CC(C(=O)O)C2` (mixture of isomers) [Compound 3, 4-[cis-2,6-Dimethyl-4-(4-trifluoromethoxy-benzyl)-piperazine-1-sulfonyl]-indan-2-carboxylic acid], the results for the half-maximal effective concentration (EC50) on PPAR alpha, on PPAR gamma and at PPAR delta were 5 to 100 µM, 5 to 100 µM and below 5 µM, respectively.

Consider `C[C@@H]1CN(c2ccc(OC(F)(F)F)cc2)C[C@H](C)N1S(=O)(=O)c1cccc2c1C[C@@H](C(=O)O)C2` [Compound 1A, (S)-4-[cis-2,6-Dimethyl-4-(4-trifluoromethoxy-phenyl)-piperazine-1-sulfonyl]-indan-2-carboxylic acid], for which the results for the EC50 on PPAR alpha, at PPAR gamma and on PPAR delta were above 100 µM, above 100 µM and below 5 µM, respectively.

On to `Cc1cc(SCc2sc(-c3ccc(C(F)(F)F)cc3)nc2C)ccc1OCC(=O)O` [Compound 2, {2-Methyl-4-[4-methyl-2-(4-trifluoromethyl-phenyl)-thiazol-5-ylmethylsulfanyl]-phenoxy}-acetic acid], for which the tissue partitioning entry in series [6] is “preferentially partitions into muscular tissue”. Also, the “expression of GLUT4 in rat skeletal muscle” value in the series on GLUT4 is recorded as “increased expression of GLUT4”.

As for `C[C@@H]1CN(Cc2ccc(OC(F)(F)F)cc2)C[C@H](C)N1S(=O)(=O)c1cccc2c1C[C@@H](C(=O)O)C2` [Compound 3A, (S)-4-[cis-2,6-Dimethyl-4-(4-trifluoromethoxy-benzyl)-piperazine-1-sulfonyl]-indan-2-carboxylic acid], the values for the EC50 at PPAR alpha, on PPAR gamma and at PPAR delta were above 100 µM, 5 to 100 µM and below 5 µM, respectively.

As for `CC(=O)NCCOC(=O)[C@H](Oc1cccc(C(F)(F)F)c1)c1ccc(Cl)cc1` [MBX-102], the “insulin sensitivity and GLUT4 translocation in adipose and muscular tissue” value in the series with GLUT4 translocation is “enhanced insulin sensitivity and GLUT4 translocation”.
